92 compounds from a melting point compilation (Tetko et al.; mined from patent text by program, amines drawn as free bases though some values may be those of a salt) can be followed below.

A word on the melting point: it is the temperature of the solid-liquid transition. `Cc1nc2ccc(OCCCN3CCC(OC(c4ccccc4)c4ccccc4)CC3)nn2n1` returned a melting point of 134 to 136 °C.
Compound `CCOCc1cc2c(N)cccc2cn1` returned a melting point of 95 °C.
With `COC(=O)c1sc2ccc(SC)cc2c1N(C)C`, the melting point lay within 63 to 66 °C.
The compound `CCCC1CCC2C3CCc4cc(O)c(C=O)cc4C3CCC12C` (configuration not stated) had a melting point of 122 to 123 °C.
`COc1cc(CCCC2OC(=O)NC2=O)cc(OC)c1O` (configuration not stated) showed a melting point of 155 to 156 °C.
Then `CSc1nn2c(N)cc(CN3CCN(C)CC3)nc2c1S(=O)(=O)c1ccccc1`, with 203 to 205 °C; and `C=CCOc1nc2ccccc2c2ncc(C(=O)OCC)c(=O)n12`, with 191 to 195 °C; and `CC(C)(C)OC(=O)NCCNS(=O)(=O)c1ccc(Br)s1`, with 106 °C.
Take `CSc1ncnn1C[C@]1(c2cccc(F)c2)O[C@@H]1c1ccccc1Cl` (relative stereo): the melting point is 98 °C.
The compound `CC1=NC=C(c2ccc3c(c2)NC(=O)CO3)C(c2ccccc2)S1` (configuration not stated) returned a melting point of 187 to 189 °C.
Compound `CC(=O)OC1CCC2(C)C(CCC3C2C(=O)CC2(C)C3CCC23OCCO3)C1` (configuration not stated) showed a melting point of 116 to 123 °C.
Compound `OCC(CO)SCc1ccc(Cl)cc1` registered a melting point of 70 to 75 °C.
Take `CCCCCCCCc1cccc(CCC(N)(CO)CO)c1`: the melting point lay within 89 to 92 °C.
The compound `CC(C)CCNS(=O)(=O)c1cc(C(=O)NC2CCc3ccccc32)ccc1Oc1ccccc1` (configuration not stated) came in with a melting point of 73 °C.
Then `Nc1nc(F)nc(OC(F)(F)F)n1`, with 138 to 139 °C.
For the compound `CNc1nc(-c2cccnc2)nc(NC)c1C(=O)Nc1ccc(C)c(C)c1`, the melting point lay in the range of 285 to 286 °C.
Take `O=C1Nc2ccccc2CCCC1N1C(=O)c2ccccc2C1=O` (configuration not stated): the melting point fell in the range of 229 to 230 °C.
As for `Cc1cc([N+](=O)[O-])c(C)nc1OC(F)F`, the melting point is 48 to 49 °C.
Then `Nc1ncc(Br)n2nc(SCc3ccccc3)nc12`, with 149 to 150 °C.
Turning to `Cc1nc(N2CCCC2)c2ccc(Br)cc2n1`, the melting point was in the range of 120 to 122 °C.
Consider `O=C(NCCCCCCCNC(=O)c1ccc(OC(F)(F)F)cc1)c1ccc(OC(F)(F)F)cc1`, for which the melting point is 150 to 151 °C.
With `CC1CCCC1(O)c1ccc(C#N)c2ccccc12` (configuration not stated), the melting point was in the range of 121 to 122 °C.
In the case of `CCCn1c(=O)c2c(nc(C=Cc3cc(OC)c(OC)cc3S(=O)(=O)O)n2C)n(CCC)c1=O`, the melting point fell in the range of 192 to 194 °C.
The compound `O=C1c2ccccc2C(=O)N1CC(O)Cn1ccnc1[N+](=O)[O-]` (configuration not stated) displayed a melting point of 213 to 214 °C.
`COC(=O)c1nn(-c2ccc(OCc3ccccc3)cc2F)cc(OC)c1=O` came in with a melting point of 143 to 144 °C.
Then `Cc1ccccc1-c1nc(N)ncc1-c1ccc(=O)n(C)n1`, with 229 °C; and `O=C(O)c1cn(-c2ccc(O)cc2)c2cc(F)c(F)cc2c1=O`, with 288 to 290 °C; and `CC1(C)CCCc2cc(CC#Cc3ccc(C(=O)O)c(O)c3)ccc21`, with 152 to 153 °C.
The compound `CCOC(=O)/C=C/c1ccc(OCCCS(C)(=O)=O)cc1Oc1ncc(C(F)(F)F)cc1Cl` gave a melting point of 191 °C.
For the compound `Cc1cccc(-c2[nH]c(C(C)C)nc2-c2cccc(-c3ccc4c(c3)C(=O)CCS4(=O)=O)c2)n1`, the melting point was in the range of 115 to 119 °C.
Then `C1CCN(c2nc(N3CCCC3)c3nc(N4CCCCC4)nc(N4CCCC4)c3n2)CC1`, with 254 to 256 °C; and `CC(CSC#N)C(=O)O` (configuration not stated), with 24 to 25 °C; and `COc1ccc2ccc(N3C(=O)c4ccccc4C3OC(=O)CCCNC(C)=O)nc2n1` (configuration not stated), with 190 °C.
Then `CC(C)CNC(=O)CN=Cc1ccccc1F`, with 154 °C.
`CN1CCC(=C2c3cc(Br)ccc3C=Cn3cccc32)CC1` had a melting point of 138 to 142 °C.
For the compound `O=CN1CCn2nccc21`, the melting point was in the range of 78 to 80 °C.
Consider `CC1(C)NC(=S)NC1=S`, for which the melting point stood at 144 °C.
Then `CC1=C(c2ccc(Cl)cc2)n2ncc(C(N)=O)c2NC1`, with 210 to 212 °C; and `O=Cc1cc(Br)c(Cl)s1`, with 61 to 62 °C; and `COC(=O)C1=Cc2cc(Br)ccc2S(=O)(=O)CC1`, with 162 to 164 °C.
In turn, `CC(CN1CCOCC1)N1CCN(c2ccccc2)CC1` (configuration not stated) registered a melting point of 55 to 56 °C.
`COC(=O)CCc1cc(C(=O)c2cccc(C(=O)OC)n2)ccc1OC`: the melting point was in the range of 97 to 98 °C.
Take `Fc1cc(F)cc(Oc2ccc(OCc3ccc(Cl)cc3)c(Cl)c2)c1`: the melting point turned out to be 95.3 °C.
In turn, `COc1cc2cc3c(Cl)ncnc3cc2cc1OCCN1CCOCC1` gave a melting point of 166 to 168 °C.
In turn, `O=Cc1ccc2c(c1)Sc1cc(C=O)ccc1N2c1ccccc1` displayed a melting point of 194 to 198 °C.
Then `Cc1ccc(S(=O)(=O)OCC2CCN(c3nc4ccccc4s3)CC2)cc1`, with 184 °C; and `NS(=O)(=O)c1ccc(-c2cnn(CC=C(Cl)Cl)c(=O)c2-c2ccc(F)cc2)cc1`, with 184 to 185 °C.
Take `C=CCC(Cc1ccc(Cl)c(Cl)c1)NC(=O)c1cc(C)cc(C)c1` (configuration not stated): the melting point lay in the range of 155 to 157 °C.
Then `Cc1c(C(=O)NC2CCN(Cc3ccccc3)CC2)c2cc(F)ccc2n1Cc1ccccc1`, with 194 to 195 °C; and `N#CC(N)=C(C#N)N=Cc1cnn(-c2c(Cl)cc(C(F)(F)F)cc2Cl)n1`, with 234 to 235 °C; and `CSc1ccc(-c2coc3ccc(-c4nnc(C)o4)cc23)cc1Cl`, with 200 to 201 °C.
`COCCc1nc2c(N)nc3cc(-c4cccnc4)ccc3c2n1CC(C)(C)O`: the melting point lay in the range of 158 to 160 °C.
Take `O=C1c2ccccc2C(=O)N1CCc1c[nH]c2ccc(CNS(=O)(=O)c3ccccc3)cc12`: the melting point was in the range of 225 to 226 °C.
Then `CC(C)(C)OC(=O)N1CCn2c(c(C(N)=S)c(Cl)c2-c2cccnc2)C1`, with 220 to 221 °C.
On to `Clc1ccc(/C=C/C2=CCN(Cc3ccccc3)CC2)cn1`, for which the melting point is 126 to 128 °C.
In turn, `CS(=O)(=O)c1ccc(-c2nn(CC3CC3)c(=O)cc2-c2ccc(F)cc2)cc1` displayed a melting point of 124 °C.
`N#Cc1cn(CC(O)CCl)nc1[N+](=O)[O-]` (configuration not stated) gave a melting point of 78 to 80 °C.
As to `CC(C)c1ccc(C2(NC(=O)c3ccccc3)C(=O)c3ccccc3C2=O)c(OC(=O)c2ccccc2)c1`, the melting point lay within 138 to 140 °C.
`CCCNCCC(=O)Nc1ccc2c(c1)C(=O)c1cc(NC(=O)CCNCCC)ccc1C2=O` showed a melting point of 170 °C.
In turn, `Cc1oc(C=Cc2cccc(C(F)(F)F)c2)nc1CCl` displayed a melting point of 99 to 100 °C.
Compound `CN1CCC(Oc2ccc(Cl)cc2)(c2ccccc2)C(O)C1` (configuration not stated) gave a melting point of 164 to 165 °C.
The compound `O=C(O)CCCCC=C(c1ccccc1)c1ccccc1` gave a melting point of 71.5 to 72.5 °C.
The compound `O=C(Cc1ccc(Cl)cc1)c1ccc(Br)cc1` displayed a melting point of 128 to 129 °C.
`CC(C)(C)OC(=O)N1CCn2c(Cl)c(-c3ccccc3)c(C(N)=O)c2C1`: the melting point fell in the range of 178 to 180 °C.
`Cc1oc(-c2ccc(C(F)(F)F)cc2)nc1COc1ccc(/C=C/Cn2oc(=O)[nH]c2=O)cc1` registered a melting point of 128 to 130 °C.
Then `CCn1cnc(N2CCc3ccccc3CC2)c(C#N)c1=O`, with 138 to 140 °C; and `CCOC(=O)c1nnc2n1-c1sc(Cl)cc1C(c1ccccc1[N+](=O)[O-])=NC2`, with 143 to 145 °C.
`Cc1nc(NC(=O)c2cccnc2)sc1C(=O)NCc1ccccc1`: the melting point fell in the range of 224 to 226 °C.
`CCC(Oc1cccc([N+](=O)[O-])c1)C(=O)NCc1ccccc1` (configuration not stated) came in with a melting point of 114 to 116 °C.
On to `CCCc1cc(O)nc(-c2cccc(Oc3ccccc3Cl)n2)n1`, for which the melting point came out at 95.1 °C.
Consider `CC(C)(Cn1cncn1)C(=O)C=Cc1ccc2ccccc2c1`, for which the melting point is 103 to 104 °C.
As for `N#Cc1c(O)nsc1S(=O)(=O)Cc1ccccc1`, the melting point was in the range of 181 to 183 °C.
For the compound `CC(C)CCNC(=O)c1ccc(-c2nn(Cc3cccc(Cl)c3)c(=S)[nH]2)cc1`, the melting point fell in the range of 218 to 220 °C.
Then `COc1ccc(C2=NN(C3CCN(S(=O)(=O)c4cccc(C(=O)O)c4)CC3)C(=O)C2(C)C)cc1OC`, with 244 °C; and `Cc1noc(NS(=O)(=O)c2sc3ccc(Cl)cc3c2C)c1Br`, with 153 to 155 °C; and `ClCCOc1cccc2nc[nH]c12`, with 153 to 154 °C.
On to `CC(C)OC(=O)N1CC(=S)Nc2ccc(-c3cccc(Cl)c3)cc21`, for which the melting point fell in the range of 208 to 212 °C.
The compound `CC(C)N(C(N)=O)C(Oc1ccccc1)C(C)(O)Cl` (configuration not stated) gave a melting point of 154 °C.
Then `COc1cccc(Sc2ccc3c(c2)CC[C@H]2NC(=O)CC[C@]32C)c1`, with 154 to 156 °C; and `CC(=O)NCc1cn(-c2ccc(-n3cccc3)c(F)c2)nn1`, with 210 to 215 °C; and `CCNC(=O)c1ccccc1Nc1nc(Nc2cc3c(cc2OC)CC(=O)NCC3)ncc1Cl`, with greater than 250 °C.
Turning to `Cn1nc(-c2ccccc2)c2c(=O)[nH]c(N)nc21`, the melting point was greater than 300 °C.
`CC1OC(=O)C2C1C1CCC2(OC(=O)C(C)(C)C)O1` (configuration not stated) displayed a melting point of 114 to 115 °C.
Then `CN(C)c1ccc(C#N)nn1`, with 150 °C.
In turn, `COCC(NC(C)C)c1c[nH]c2cccc(Oc3ccc(Cl)cc3)c12` (configuration not stated) returned a melting point of 149 to 150 °C.
`OC1CCCCC1N1CCC(Cc2ccc(Cl)cc2)CC1` (configuration not stated) showed a melting point of 69.1 to 70.4 °C.
`CC(=O)Nc1ccc(Sc2ccc(Br)cc2)cc1` registered a melting point of 153 to 155 °C.
Turning to `O=c1ccc2c(-c3cccs3)nccc2[nH]1`, the melting point lay in the range of 238 to 240 °C.
Compound `OCc1nccc(N2CCCCC2)c1Cl` returned a melting point of 68 to 70 °C.
As for `CCOC(=O)C(CCc1ccccc1)(NC(C)=O)C(=O)OCC`, the melting point was 115 to 117 °C.
Regarding `CCOC(=O)c1cc2c(nc1C)C(=Cc1cccs1)CCC2`, the melting point fell in the range of 117 to 118 °C.
Then `O=C(c1ccccc1)n1c(=O)c(C(F)(F)F)cn(C2CC(OCc3ccccc3)C(CO)O2)c1=O` (configuration not stated), with 154 to 155 °C.
